{
  "source": "paper PMC9059851",
  "about": "(RSC Advances, 2019)",
  "assay": "Zeta potential measurement",
  "format": "physicochemical",
  "conditions": "NanoZS, solutions in pH 7.4 phosphate buffer",
  "data": [
    {"smiles": "C[C@]12CC[C@H](O)C[C@H]1CC[C@@H]1[C@@H]2CC[C@]2(C)[C@@H](c3ccc(=O)oc3)CC[C@]12O", "note": "[bufalin]", "values": [
      {"measurement": "zeta potential", "value": "−0.55", "unit": "mV"}
    ]}
  ]
}
